Measurements as given in paper PMC5362750, “Discovery of Potent, Selective, and Orally Bioavailable Small-Molecule Modulators of the Mediator Complex-Associated Kinases CDK8 and CDK19” (Journal of Medicinal Chemistry, 2016).

Tests used:
[1] = molecular target: A1 (h) (Homo sapiens, UniProt P30542); experiment: CEREP binding assay; conditions: agonist radioligand, read-out: % Inhibition of Control Specific Binding
[2] = molecular target: T1, CRF1 (h) (Homo sapiens, UniProt P34998); experiment: CEREP binding assay; conditions: agonist radioligand, read-out: % Inhibition of Control Specific Binding
T1 construct: purchased Millipore (KinaseProfiler) kinase panel

[3] = molecular target: T2, BLT1 (LTB4) (h) (Homo sapiens, UniProt Q15722); experiment: CEREP binding assay; conditions: agonist radioligand, read-out: % Inhibition of Control Specific Binding
T2 construct: purchased Millipore (KinaseProfiler) kinase panel

[4] = molecular target: T3, MCH1 (h) (Homo sapiens, UniProt Q99705); experiment: CEREP binding assay; conditions: agonist radioligand, read-out: % Inhibition of Control Specific Binding
T3 construct: purchased Millipore (KinaseProfiler) kinase panel

[5] = molecular target: T4, MAO-A (Rattus norvegicus, UniProt P21396); experiment: CEREP binding assay; conditions: antagonist radioligand, read-out: % Inhibition of Control Specific Binding
T4 construct: purchased Millipore (KinaseProfiler) kinase panel

[6] = molecular target: sst4 (h) (Homo sapiens, UniProt P31391); experiment: CEREP binding assay; conditions: agonist radioligand, read-out: % Inhibition of Control Specific Binding
[7] = molecular target: T5, Ca2+ channel (N) (Rattus norvegicus, UniProt Q02294); experiment: CEREP binding assay; conditions: antagonist radioligand, read-out: % Inhibition of Control Specific Binding
T5 construct: CEREP

[8] = molecular target: T6, choline transporter (CHT1) (h) (Homo sapiens, UniProt Q9GZV3); experiment: CEREP binding assay; conditions: antagonist radioligand, read-out: % Inhibition of Control Specific Binding
T6 construct: CEREP

[9] = molecular target: JNK3 (Homo sapiens, UniProt P53779); experiment: Kinase panel (Millipore); type: biochemical; conditions: 1 µM, ATP at Km
[10] = molecular target: T7, LKB1 (Homo sapiens, UniProt Q15831); experiment: Kinase panel (Millipore); type: biochemical; conditions: 1 µM, ATP at Km
T7 construct: purchased Millipore (KinaseProfiler) kinase panel

[11] = molecular target: MAPK1 (Homo sapiens, UniProt P27361); experiment: Kinase panel (Millipore); type: biochemical; conditions: 1 µM, ATP at Km
[12] = molecular target: T8, ERBB4 (Homo sapiens, UniProt Q15303); experiment: Kinase panel (Millipore); type: biochemical; conditions: 1 µM, ATP at Km
T8 construct: purchased Millipore (KinaseProfiler) kinase panel

[13] = molecular target: FES (Homo sapiens, UniProt P07332); experiment: Kinase panel (Millipore); type: biochemical; conditions: 1 µM, ATP at Km
[14] = molecular target: FGR (Homo sapiens, UniProt P09769); experiment: Kinase panel (Millipore); type: biochemical; conditions: 1 µM, ATP at Km
[15] = molecular target: CHK1 (Homo sapiens, UniProt O14757); experiment: Kinase panel (Millipore); type: biochemical; conditions: 1 µM, ATP at Km
[16] = molecular target: T9, DAPK1 (Homo sapiens, UniProt P53355); experiment: Kinase panel (Millipore); type: biochemical; conditions: 1 µM, ATP at Km
T9 construct: purchased Millipore (KinaseProfiler) kinase panel

[17] = molecular target: T10, NEK6 (Homo sapiens, UniProt Q9HC98); experiment: Kinase panel (Millipore); type: biochemical; conditions: 1 µM, ATP at Km
T10 construct: purchased Millipore (KinaseProfiler) kinase panel

[18] = molecular target: DDR2 (Homo sapiens, UniProt Q16832); experiment: Kinase panel (Millipore); type: biochemical; conditions: 1 µM, ATP at Km
[19] = molecular target: T11, NEK11 (Homo sapiens, UniProt Q8NG66); experiment: Kinase panel (Millipore); type: biochemical; conditions: 1 µM, ATP at Km
T11 construct: purchased Millipore (KinaseProfiler) kinase panel

[20] = molecular target: T12, PAK4 (Homo sapiens, UniProt O96013); experiment: Kinase panel (Millipore); type: biochemical; conditions: 1 µM, ATP at Km
T12 construct: purchased Millipore (KinaseProfiler) kinase panel

[21] = molecular target: JNK1ALPHA1 (Homo sapiens, UniProt P45983); experiment: Kinase panel (Millipore); type: biochemical; conditions: 1 µM, ATP at Km
[22] = molecular target: T13, PASK (Homo sapiens, UniProt Q96RG2); experiment: Kinase panel (Millipore); type: biochemical; conditions: 1 µM, ATP at Km
T13 construct: purchased Millipore (KinaseProfiler) kinase panel

[23] = molecular target: T14, MER (Homo sapiens, UniProt Q12866); experiment: Kinase panel (Millipore); type: biochemical; conditions: 1 µM, ATP at Km
T14 construct: purchased Millipore (KinaseProfiler) kinase panel

[24] = molecular target: T15, SGK2 (Homo sapiens, UniProt Q9HBY8); experiment: Kinase panel (Millipore); type: biochemical; conditions: 1 µM, ATP at Km
T15 construct: purchased Millipore (KinaseProfiler) kinase panel

[25] = molecular target: T16, SNK (Homo sapiens, UniProt Q9NYY3); experiment: Kinase panel (Millipore); type: biochemical; conditions: 1 µM, ATP at Km
T16 construct: purchased Millipore (KinaseProfiler) kinase panel

[26] = molecular target: PKBGAMMA (Homo sapiens, UniProt Q9Y243); experiment: Kinase panel (Millipore); type: biochemical; conditions: 1 µM, ATP at Km
[27] = molecular target: T17, SRPK2 (Homo sapiens, UniProt P78362); experiment: Kinase panel (Millipore); type: biochemical; conditions: 1 µM, ATP at Km
T17 construct: purchased Millipore (KinaseProfiler) kinase panel

[28] = molecular target: T18, GCK (Homo sapiens, UniProt Q12851); experiment: Kinase panel (Millipore); type: biochemical; conditions: 1 µM, ATP at Km
T18 construct: purchased Millipore (KinaseProfiler) kinase panel

[29] = molecular target: T19, TBK1 (Homo sapiens, UniProt Q9UHD2); experiment: Kinase panel (Millipore); type: biochemical; conditions: 1 µM, ATP at Km
T19 construct: purchased Millipore (KinaseProfiler) kinase panel

[30] = molecular target: T20, TLK2 (Homo sapiens, UniProt Q86UE8); experiment: Kinase panel (Millipore); type: biochemical; conditions: 1 µM, ATP at Km
T20 construct: purchased Millipore (KinaseProfiler) kinase panel

[31] = molecular target: T21, PKCETA (Homo sapiens, UniProt P24723); experiment: Kinase panel (Millipore); type: biochemical; conditions: 1 µM, ATP at Km
T21 construct: purchased Millipore (KinaseProfiler) kinase panel

[32] = molecular target: T22, TAO1 (Homo sapiens, UniProt Q7L7X3); experiment: Kinase panel (Millipore); type: biochemical; conditions: 1 µM, ATP at Km
T22 construct: purchased Millipore (KinaseProfiler) kinase panel

[33] = molecular target: T23, WNK3 (Homo sapiens, UniProt Q9BYP7); experiment: Kinase panel (Millipore); type: biochemical; conditions: 1 µM, ATP at Km
T23 construct: purchased Millipore (KinaseProfiler) kinase panel

[34] = molecular target: T24, PRK2 (Homo sapiens, UniProt Q16513); experiment: Kinase panel (Millipore); type: biochemical; conditions: 1 µM, ATP at Km
T24 construct: purchased Millipore (KinaseProfiler) kinase panel

[35] = molecular target: T25, GRK5 (Homo sapiens, UniProt P34947); experiment: Kinase panel (Millipore); type: biochemical; conditions: 1 µM, ATP at Km
T25 construct: purchased Millipore (KinaseProfiler) kinase panel

[36] = molecular target: CRAF (Homo sapiens, UniProt P04049); experiment: Kinase panel (Millipore); type: biochemical; conditions: 1 µM, ATP at Km
[37] = molecular target: CAMKIIDELTA (Homo sapiens, UniProt Q13557); experiment: Kinase panel (Millipore); type: biochemical; conditions: 1 µM, ATP at Km
[38] = test system: APC-mutant SW620 human colorectal carcinoma xenograft
[39] = test system: TNF-alpha (h); conditions: 10 µM, agonist radioligand
[40] = molecular target: CDK7/CYCLINH/MAT1 (Homo sapiens, UniProt P50613); conditions: 1 µM, ATP at Km
[41] = molecular target: CK2 (Homo sapiens, UniProt P68400); conditions: 1 µM, ATP at Km
[42] = molecular target: EGFR(L861Q) (Homo sapiens, UniProt P00533, L861Q); conditions: 1 µM, ATP at Km
[43] = molecular target: alpha 2B (h) (Homo sapiens, UniProt P18089); experiment: biochemical; conditions: read-out: % Inhibition of Control Specific Binding

T24 sequence (Q16513 whole entry): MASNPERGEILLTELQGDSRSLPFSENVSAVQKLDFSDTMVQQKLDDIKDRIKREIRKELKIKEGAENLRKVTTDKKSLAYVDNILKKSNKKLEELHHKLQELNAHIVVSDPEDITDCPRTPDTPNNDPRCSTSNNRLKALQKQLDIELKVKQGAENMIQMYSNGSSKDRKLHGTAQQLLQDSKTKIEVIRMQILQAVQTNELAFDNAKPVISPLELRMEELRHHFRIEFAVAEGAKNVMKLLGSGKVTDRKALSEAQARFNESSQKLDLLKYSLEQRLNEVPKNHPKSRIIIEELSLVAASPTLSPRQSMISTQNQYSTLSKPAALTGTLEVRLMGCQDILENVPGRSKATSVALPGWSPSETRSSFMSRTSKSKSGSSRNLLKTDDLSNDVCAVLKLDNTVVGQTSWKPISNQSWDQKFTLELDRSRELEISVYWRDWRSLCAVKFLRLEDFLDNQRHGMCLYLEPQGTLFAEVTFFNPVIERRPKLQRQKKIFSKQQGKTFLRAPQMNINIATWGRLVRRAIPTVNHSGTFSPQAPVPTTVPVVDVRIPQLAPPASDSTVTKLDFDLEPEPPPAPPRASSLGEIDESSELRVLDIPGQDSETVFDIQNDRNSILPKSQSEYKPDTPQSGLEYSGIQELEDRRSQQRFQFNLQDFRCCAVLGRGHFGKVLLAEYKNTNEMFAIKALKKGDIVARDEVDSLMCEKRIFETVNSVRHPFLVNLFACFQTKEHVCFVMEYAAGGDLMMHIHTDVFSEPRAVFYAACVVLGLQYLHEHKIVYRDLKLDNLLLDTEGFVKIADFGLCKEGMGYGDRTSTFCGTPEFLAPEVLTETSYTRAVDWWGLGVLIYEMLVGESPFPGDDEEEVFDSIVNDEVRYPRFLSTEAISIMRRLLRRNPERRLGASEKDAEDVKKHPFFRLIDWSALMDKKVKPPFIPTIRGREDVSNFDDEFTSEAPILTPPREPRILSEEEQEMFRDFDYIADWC
T25 sequence (P34947 whole entry): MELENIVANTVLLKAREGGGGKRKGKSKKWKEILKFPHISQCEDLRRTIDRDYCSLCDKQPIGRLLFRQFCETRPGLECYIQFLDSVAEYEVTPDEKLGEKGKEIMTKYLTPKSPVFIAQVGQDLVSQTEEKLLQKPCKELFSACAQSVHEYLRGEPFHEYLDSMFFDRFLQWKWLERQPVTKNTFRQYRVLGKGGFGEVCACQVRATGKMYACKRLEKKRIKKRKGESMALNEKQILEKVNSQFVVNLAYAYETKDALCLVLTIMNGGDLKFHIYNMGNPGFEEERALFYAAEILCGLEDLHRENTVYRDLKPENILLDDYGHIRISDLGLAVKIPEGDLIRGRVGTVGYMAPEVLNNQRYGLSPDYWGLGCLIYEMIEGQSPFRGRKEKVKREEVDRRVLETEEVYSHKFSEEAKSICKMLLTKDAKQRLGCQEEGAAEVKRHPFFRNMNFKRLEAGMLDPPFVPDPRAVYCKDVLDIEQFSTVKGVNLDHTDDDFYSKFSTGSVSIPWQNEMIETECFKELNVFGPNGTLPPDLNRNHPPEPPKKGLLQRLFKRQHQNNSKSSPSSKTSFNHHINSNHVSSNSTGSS
T16 sequence (Q9NYY3 whole entry): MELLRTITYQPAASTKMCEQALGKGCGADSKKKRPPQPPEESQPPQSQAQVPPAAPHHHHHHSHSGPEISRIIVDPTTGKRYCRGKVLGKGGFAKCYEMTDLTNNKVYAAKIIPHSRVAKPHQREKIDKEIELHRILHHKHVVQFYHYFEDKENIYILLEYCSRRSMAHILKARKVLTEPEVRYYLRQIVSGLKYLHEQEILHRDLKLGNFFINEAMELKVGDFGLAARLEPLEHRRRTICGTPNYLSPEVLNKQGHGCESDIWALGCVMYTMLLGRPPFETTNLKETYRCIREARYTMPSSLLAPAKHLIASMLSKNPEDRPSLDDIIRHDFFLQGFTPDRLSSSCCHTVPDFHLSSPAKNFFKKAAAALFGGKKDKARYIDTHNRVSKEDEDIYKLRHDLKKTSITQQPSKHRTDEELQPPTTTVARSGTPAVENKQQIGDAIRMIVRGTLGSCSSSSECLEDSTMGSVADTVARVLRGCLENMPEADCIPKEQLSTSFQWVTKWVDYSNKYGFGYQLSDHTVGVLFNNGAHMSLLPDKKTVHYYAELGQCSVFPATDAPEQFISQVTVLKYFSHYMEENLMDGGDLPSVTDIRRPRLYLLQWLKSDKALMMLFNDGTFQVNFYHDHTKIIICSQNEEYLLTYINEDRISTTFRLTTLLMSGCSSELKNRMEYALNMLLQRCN
Chain of CAMKIIDELTA (Q13557 whole entry): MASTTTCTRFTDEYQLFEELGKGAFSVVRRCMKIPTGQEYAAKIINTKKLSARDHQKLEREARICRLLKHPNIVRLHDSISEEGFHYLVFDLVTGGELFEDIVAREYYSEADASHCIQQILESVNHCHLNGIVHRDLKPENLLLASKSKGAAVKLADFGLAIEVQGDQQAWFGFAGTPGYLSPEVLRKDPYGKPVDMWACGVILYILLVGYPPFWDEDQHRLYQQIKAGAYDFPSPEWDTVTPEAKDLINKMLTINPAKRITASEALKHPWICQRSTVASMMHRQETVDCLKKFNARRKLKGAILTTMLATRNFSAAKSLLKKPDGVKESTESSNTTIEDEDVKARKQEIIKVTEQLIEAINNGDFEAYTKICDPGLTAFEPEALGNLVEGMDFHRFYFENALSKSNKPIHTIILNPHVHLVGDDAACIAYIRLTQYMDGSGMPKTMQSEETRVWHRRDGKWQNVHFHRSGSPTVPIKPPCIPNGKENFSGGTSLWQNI
T10 sequence (Q9HC98 whole entry): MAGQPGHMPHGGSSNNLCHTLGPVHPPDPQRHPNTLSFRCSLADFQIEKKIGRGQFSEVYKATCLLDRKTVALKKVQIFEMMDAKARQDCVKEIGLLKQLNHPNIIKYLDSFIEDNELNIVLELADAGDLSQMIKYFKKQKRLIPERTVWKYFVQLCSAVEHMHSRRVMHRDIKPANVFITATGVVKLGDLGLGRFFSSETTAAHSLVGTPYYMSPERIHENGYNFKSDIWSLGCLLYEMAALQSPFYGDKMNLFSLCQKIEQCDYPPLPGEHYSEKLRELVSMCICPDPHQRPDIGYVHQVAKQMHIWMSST
T14 sequence (Q12866 21-999): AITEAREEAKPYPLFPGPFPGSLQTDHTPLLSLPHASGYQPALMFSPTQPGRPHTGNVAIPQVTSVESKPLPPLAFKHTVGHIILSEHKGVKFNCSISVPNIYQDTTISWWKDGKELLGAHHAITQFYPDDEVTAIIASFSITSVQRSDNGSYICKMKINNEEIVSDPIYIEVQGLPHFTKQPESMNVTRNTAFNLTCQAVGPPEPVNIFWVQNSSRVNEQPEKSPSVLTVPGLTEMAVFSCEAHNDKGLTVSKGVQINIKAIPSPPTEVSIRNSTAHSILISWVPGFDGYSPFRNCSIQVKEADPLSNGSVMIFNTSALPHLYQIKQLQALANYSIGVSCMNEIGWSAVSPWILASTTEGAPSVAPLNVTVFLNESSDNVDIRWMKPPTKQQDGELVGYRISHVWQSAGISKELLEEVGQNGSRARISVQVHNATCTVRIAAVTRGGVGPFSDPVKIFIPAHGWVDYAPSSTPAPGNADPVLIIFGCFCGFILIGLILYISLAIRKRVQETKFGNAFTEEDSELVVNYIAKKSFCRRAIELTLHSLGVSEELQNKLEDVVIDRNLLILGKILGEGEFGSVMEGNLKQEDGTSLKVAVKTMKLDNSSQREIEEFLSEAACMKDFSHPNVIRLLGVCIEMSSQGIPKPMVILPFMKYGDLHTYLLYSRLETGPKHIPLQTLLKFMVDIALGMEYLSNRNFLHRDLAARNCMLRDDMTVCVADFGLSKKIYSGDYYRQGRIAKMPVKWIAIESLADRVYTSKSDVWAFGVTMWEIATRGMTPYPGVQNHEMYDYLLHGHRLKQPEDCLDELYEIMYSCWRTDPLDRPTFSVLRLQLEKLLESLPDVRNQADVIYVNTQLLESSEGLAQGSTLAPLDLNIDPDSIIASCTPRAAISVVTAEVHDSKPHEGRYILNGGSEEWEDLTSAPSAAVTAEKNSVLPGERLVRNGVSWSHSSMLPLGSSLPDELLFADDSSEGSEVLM
Chain of sst4 (h) (P31391 whole entry): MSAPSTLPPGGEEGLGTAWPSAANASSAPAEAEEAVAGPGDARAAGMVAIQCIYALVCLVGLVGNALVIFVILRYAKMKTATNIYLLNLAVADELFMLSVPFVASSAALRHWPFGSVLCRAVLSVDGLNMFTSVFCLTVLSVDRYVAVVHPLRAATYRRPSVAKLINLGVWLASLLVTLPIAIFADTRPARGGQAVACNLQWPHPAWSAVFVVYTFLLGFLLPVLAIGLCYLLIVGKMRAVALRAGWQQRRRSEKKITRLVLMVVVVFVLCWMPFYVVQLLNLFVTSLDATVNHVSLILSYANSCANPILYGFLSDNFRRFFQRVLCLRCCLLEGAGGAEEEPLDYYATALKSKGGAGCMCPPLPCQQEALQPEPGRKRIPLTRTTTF
Chain of FGR (P09769 whole entry): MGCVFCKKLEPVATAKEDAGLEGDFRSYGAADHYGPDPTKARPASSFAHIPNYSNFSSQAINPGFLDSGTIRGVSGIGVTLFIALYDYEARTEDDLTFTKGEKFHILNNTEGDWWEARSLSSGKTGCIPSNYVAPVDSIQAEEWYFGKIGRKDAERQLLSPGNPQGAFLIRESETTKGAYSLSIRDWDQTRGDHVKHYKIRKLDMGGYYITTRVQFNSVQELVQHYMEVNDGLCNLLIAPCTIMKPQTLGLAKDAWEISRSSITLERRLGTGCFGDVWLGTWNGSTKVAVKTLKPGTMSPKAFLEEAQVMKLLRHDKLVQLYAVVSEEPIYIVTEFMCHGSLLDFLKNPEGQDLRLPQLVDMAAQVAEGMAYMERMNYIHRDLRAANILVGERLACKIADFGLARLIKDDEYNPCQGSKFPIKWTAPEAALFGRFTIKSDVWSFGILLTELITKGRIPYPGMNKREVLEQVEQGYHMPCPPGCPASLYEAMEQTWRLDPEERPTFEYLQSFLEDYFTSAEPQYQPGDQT

Which results are given for `Cn1ncc2cc(-c3cnc(N)c(Cl)c3N3CCC4(CCNC4=O)CC3)ccc21` [Compound 109, 8-(2-Amino-3-chloro-5-(1-methyl-1H-indazol-5-yl)pyridin-4-yl)-2,8-diazaspiro[4.5]decan-1-one]?
inhibition at 10 µM [1]: -4%; inhibition at 10 µM [2]: -7%; inhibition at 10 µM [3]: 16%; inhibition at 10 µM [4]: 34%; inhibition at 10 µM [5]: 8%; inhibition at 10 µM [6]: 9%; inhibition at 10 µM [7]: -12%; inhibition at 10 µM [8]: 4%; % effect [9]: -5%; % effect [10]: 5%; % effect [11]: 7%; % effect [12]: -28%; % effect [13]: -6%; % effect [14]: -2%; % effect [15]: -8%; % effect [16]: -8%; % effect [17]: 4%; % effect [18]: 19%; % effect [19]: 12%; % effect [20]: -1%; % effect [21]: -6%; % effect [22]: -20%; % effect [23]: 11%; % effect [24]: -3%; % effect [25]: 11%; % effect [26]: 7%; % effect [27]: 4%; % effect [28]: -10%; % effect [29]: 6%; % effect [30]: -5%; % effect [31]: 6%; % effect [32]: 6%; % effect [33]: 6%; % effect [34]: 1%; % effect [35]: 7%; % effect [36]: -10%; % effect [37]: 7%; T/C (final tumor weights) ([38]; 30 mg/kg q.d. oral, P = 0.0241): 45.8; tolerability ([38]; 30 mg/kg q.d. schedule): well tolerated with no significant body weight loss; % Inhibition of Control Specific Binding [39]: -8%; % effect [40]: 5%; % effect [41]: 3%; % effect [42]: 11%; inhibition at 10 µM [43]: 10%
